US4075336A, “Thiazines and method” (Kanto Ishiseiyaku Co., Ltd., priority 1976, dated 1978)

How the values were obtained:
dd strain mice [1] = assay: Acute toxicity, intraperitoneal (LD50, deaths); assay type: in vivo
Experimental: (§1) Animals [dd strain mice; 5 groups of males and 5 groups of females, each group consisting of 8 animals] were intraperitoneally given the compound of this invention in doses of 2000, 2400, 2880, 3456 and 5000 mg/kg. […] Based on this finding, it may be concluded that the value of LD50 is at least more than 5000 mg/kg.

[2] = Acute toxicity, intraperitoneal (LD50, deaths); assay type: in vivo; conditions: mouse, in vivo, ip; intraperitoneal, dd strain mice, males and females
Experimental: as §1

Wister-strain rats = assay: Anti-inflammatory effect, carrageenan-induced edema; assay type: in vivo; conditions: for inhibitory percent: vs control
Experimental: (Carrageenen-induced edema)
Wister-strain rats (each group consisting of 5 animals) were subcutaneously given 0.1 ml of a 1% carrageenan suspension on their right paws. The volumes of the right paws were measured prior to the administration, and thereafter were measured with elapsed time. The inhibitory percent was calculated, in comparison with a control, on the basis of the volume of edema induced. The volume was estimated with reference to the volume before the carrageenan-injection. The test compounds were orally administered 1 hour before the carrageenan-injection. The same experiments were repeated twice. The mean values of the results in all 10 animals were compared with those of methiazinic acid.

rats = assay: Analgesic effect, Randall-Selitto method (pain threshold, carrageenan-inflamed paw); assay type: in vivo
Experimental: Using an analgesic effect measuring apparatus (made by Ugo Basile Co., Ltd.), pain thresholds in rats were measured as a function of elapsed time and compared with normal pain threshold values which had previously been determined. Each group consisted of 5 animals, which were subcutaneously given 0.1 ml of a 1% carrageenan suspension on their right paws. The test compounds were given orally, 1 hour before the carrageenan medication. The experiments were repeated twice under the same conditions. The mean values of the results obtained for 10 animals were compared with those of methiazinic acid.
The results obtained are shown in Table 1, wherein "OS" refers to oral administration.

dd strain mice [3] = conditions: methiazinic acid; source of value not given; cited from earlier work
[4] = 50 mg/kg per os, inflammated paw
[5] = 100 mg/kg per os, inflammated paw

COc1ccc(C2NC(=O)c3ccccc3S2)cc1O (centres unmarked) [Compound of this invention, 4-oxo-2-(3-hydroxy-4-methoxyphenyl)-2,3-dihydro-5,6-benzo-1,3-thiazine]
toxicity relative to that of methiazinic acid (dd strain mice [1]; from LD50 values): less than one/tenth | deaths (dd strain mice [1]; intraperitoneal, 2000, 2400, 2880, 3456 and 5000 mg/kg, male and female dd strain mice): no deaths were observed | LD50 [2]: > 5000 mg/kg | edema percent (Wister-strain rats; 50 mg/kg per os, 1 hr.): 29.3% | inhibitory percent (Wister-strain rats; 50 mg/kg per os, 1 hr.): 39.2% | edema percent (Wister-strain rats; 50 mg/kg per os, 2 hrs.): 43.1% | inhibitory percent (Wister-strain rats; 50 mg/kg per os, 2 hrs.): 32.6% | edema percent (Wister-strain rats; 50 mg/kg per os, 3 hrs.): 43.1% | inhibitory percent (Wister-strain rats; 50 mg/kg per os, 3 hrs.): 37.3% | edema percent (Wister-strain rats; 50 mg/kg per os, 4 hrs.): 42.4% | inhibitory percent (Wister-strain rats; 50 mg/kg per os, 4 hrs.): 32.1% | edema percent (Wister-strain rats; 50 mg/kg per os, 5 hrs.): 37.4% | inhibitory percent (Wister-strain rats; 50 mg/kg per os, 5 hrs.): 36.4% | edema percent (Wister-strain rats; 100 mg/kg per os, 1 hr.): 24.1% | inhibitory percent (Wister-strain rats; 100 mg/kg per os, 1 hr.): 42.1% | edema percent (Wister-strain rats; 100 mg/kg per os, 2 hrs.): 31.5% | inhibitory percent (Wister-strain rats; 100 mg/kg per os, 2 hrs.): 49.9% | edema percent (Wister-strain rats; 100 mg/kg per os, 3 hrs.): 34.6% | inhibitory percent (Wister-strain rats; 100 mg/kg per os, 3 hrs.): 50.4% | edema percent (Wister-strain rats; 100 mg/kg per os, 4 hrs.): 33.9% | inhibitory percent (Wister-strain rats; 100 mg/kg per os, 4 hrs.): 47.5% | edema percent (Wister-strain rats; 100 mg/kg per os, 5 hrs.): 35.5% | inhibitory percent (Wister-strain rats; 100 mg/kg per os, 5 hrs.): 39.1% | anti-inflammatory effect compared with methiazinic acid (in words) (Wister-strain rats; 50 and 100 mg/kg per os): very similar to that of methiazinic acid | duration of anti-inflammatory effect (in words) (Wister-strain rats; 50 and 100 mg/kg per os): long duration effect, which was observed even after 5 hours | anti-inflammatory effect 1 hour after administration (in words) (Wister-strain rats; 50 and 100 mg/kg per os, 1 hour): significant effect 1 hour after administration | Analgesic coefficient (rats; [4]): 0.73 | Pain threshold after 30 min. (rats; [4]): 62.5 mm Hg | Pain threshold after 60 min. (rats; [4]): 57.7 mm Hg | Pain threshold after 90 min. (rats; [4]): 48.0 mm Hg | Pain threshold after 120 min. (rats; [4]): 41.8 mm Hg | Pain threshold after 180 min. (rats; [4]): 36.8 mm Hg | Pain threshold after 240 min. (rats; [4]): 44.2 mm Hg | Pain threshold, before medication (rats; [4]): 66.8 mm Hg | Analgesic coefficient (rats; 50 mg/kg per os, normal paw): 0.93 | Pain threshold after 30 min. (rats; 50 mg/kg per os, normal paw): 66.7 mm Hg | Pain threshold after 60 min. (rats; 50 mg/kg per os, normal paw): 66.0 mm Hg | Pain threshold after 90 min. (rats; 50 mg/kg per os, normal paw): 64.0 mm Hg | Pain threshold after 120 min. (rats; 50 mg/kg per os, normal paw): 61.7 mm Hg | Pain threshold after 180 min. (rats; 50 mg/kg per os, normal paw): 57.3 mm Hg | Pain threshold after 240 min. (rats; 50 mg/kg per os, normal paw): 60.8 mm Hg | Pain threshold, before medication (rats; 50 mg/kg per os, normal paw): 67.3 mm Hg | Analgesic coefficient (rats; [5]): 0.82 | Pain threshold after 30 min. (rats; [5]): 66.7 mm Hg | Pain threshold after 60 min. (rats; [5]): 63.7 mm Hg | Pain threshold after 90 min. (rats; [5]): 57.2 mm Hg | Pain threshold after 120 min. (rats; [5]): 49.0 mm Hg | Pain threshold after 180 min. (rats; [5]): 43.3 mm Hg | Pain threshold after 240 min. (rats; [5]): 43.2 mm Hg | Pain threshold, before medication (rats; [5]): 65.6 mm Hg | Analgesic coefficient (rats; 100 mg/kg per os, normal paw): 0.96 | Pain threshold after 30 min. (rats; 100 mg/kg per os, normal paw): 65.0 mm Hg | Pain threshold after 60 min. (rats; 100 mg/kg per os, normal paw): 65.7 mm Hg | Pain threshold after 90 min. (rats; 100 mg/kg per os, normal paw): 65.2 mm Hg | Pain threshold after 120 min. (rats; 100 mg/kg per os, normal paw): 62.5 mm Hg | Pain threshold after 180 min. (rats; 100 mg/kg per os, normal paw): 61.0 mm Hg | Pain threshold after 240 min. (rats; 100 mg/kg per os, normal paw): 61.2 mm Hg | Pain threshold, before medication (rats; 100 mg/kg per os, normal paw): 66.0 mm Hg | analgesic effect (in words) (rats; 50 and 100 mg/kg, oral): clearly exerts analgesic effects | duration and strength of analgesic effect compared with methiazinic acid (in words) (rats; 50 and 100 mg/kg, oral): about the same duration and strength of effect as methiazinic acid

CN1c2ccccc2Sc2ccc(CC(=O)O)cc21 [Methiazinic acid, α-(10-methyl-2-pheno-thiazinyl)-acetic acid, reference compound]
LD50 (dd strain mice [3]): about 500 mg/kg | edema percent (Wister-strain rats; 50 mg/kg per os, 1 hr.): 38.8% | inhibitory percent (Wister-strain rats; 50 mg/kg per os, 1 hr.): 19.6% | edema percent (Wister-strain rats; 50 mg/kg per os, 2 hrs.): 47.7% | inhibitory percent (Wister-strain rats; 50 mg/kg per os, 2 hrs.): 25.5% | edema percent (Wister-strain rats; 50 mg/kg per os, 3 hrs.): 48.8% | inhibitory percent (Wister-strain rats; 50 mg/kg per os, 3 hrs.): 29.2% | edema percent (Wister-strain rats; 50 mg/kg per os, 4 hrs.): 46.7% | inhibitory percent (Wister-strain rats; 50 mg/kg per os, 4 hrs.): 25.2% | edema percent (Wister-strain rats; 50 mg/kg per os, 5 hrs.): 39.4% | inhibitory percent (Wister-strain rats; 50 mg/kg per os, 5 hrs.): 32.9% | edema percent (Wister-strain rats; 100 mg/kg per os, 1 hr.): 34.2% | inhibitory percent (Wister-strain rats; 100 mg/kg per os, 1 hr.): 17.7% | edema percent (Wister-strain rats; 100 mg/kg per os, 2 hrs.): 38.1% | inhibitory percent (Wister-strain rats; 100 mg/kg per os, 2 hrs.): 39.3% | edema percent (Wister-strain rats; 100 mg/kg per os, 3 hrs.): 40.1% | inhibitory percent (Wister-strain rats; 100 mg/kg per os, 3 hrs.): 42.4% | edema percent (Wister-strain rats; 100 mg/kg per os, 4 hrs.): 39.7% | inhibitory percent (Wister-strain rats; 100 mg/kg per os, 4 hrs.): 38.5% | edema percent (Wister-strain rats; 100 mg/kg per os, 5 hrs.): 36.0% | inhibitory percent (Wister-strain rats; 100 mg/kg per os, 5 hrs.): 38.3% | Analgesic coefficient (rats; [4]): 0.74 | Pain threshold after 30 min. (rats; [4]): 62.7 mm Hg | Pain threshold after 60 min. (rats; [4]): 57.7 mm Hg | Pain threshold after 90 min. (rats; [4]): 48.9 mm Hg | Pain threshold after 120 min. (rats; [4]): 43.5 mm Hg | Pain threshold after 180 min. (rats; [4]): 39.0 mm Hg | Pain threshold after 240 min. (rats; [4]): 44.5 mm Hg | Pain threshold, before medication (rats; [4]): 66.8 mm Hg | Analgesic coefficient (rats; 50 mg/kg per os, normal paw): 0.94 | Pain threshold after 30 min. (rats; 50 mg/kg per os, normal paw): 66.2 mm Hg | Pain threshold after 60 min. (rats; 50 mg/kg per os, normal paw): 65.3 mm Hg | Pain threshold after 90 min. (rats; 50 mg/kg per os, normal paw): 63.8 mm Hg | Pain threshold after 120 min. (rats; 50 mg/kg per os, normal paw): 62.0 mm Hg | Pain threshold after 180 min. (rats; 50 mg/kg per os, normal paw): 59.7 mm Hg | Pain threshold after 240 min. (rats; 50 mg/kg per os, normal paw): 61.3 mm Hg | Pain threshold, before medication (rats; 50 mg/kg per os, normal paw): 67.2 mm Hg | Analgesic coefficient (rats; [5]): 0.83 | Pain threshold after 30 min. (rats; [5]): 69.3 mm Hg | Pain threshold after 60 min. (rats; [5]): 66.7 mm Hg | Pain threshold after 90 min. (rats; [5]): 57.3 mm Hg | Pain threshold after 120 min. (rats; [5]): 49.5 mm Hg | Pain threshold after 180 min. (rats; [5]): 47.2 mm Hg | Pain threshold after 240 min. (rats; [5]): 47.2 mm Hg | Pain threshold, before medication (rats; [5]): 67.7 mm Hg | Analgesic coefficient (rats; 100 mg/kg per os, normal paw): 0.98 | Pain threshold after 30 min. (rats; 100 mg/kg per os, normal paw): 69.0 mm Hg | Pain threshold after 60 min. (rats; 100 mg/kg per os, normal paw): 66.7 mm Hg | Pain threshold after 90 min. (rats; 100 mg/kg per os, normal paw): 65.5 mm Hg | Pain threshold after 120 min. (rats; 100 mg/kg per os, normal paw): 64.8 mm Hg | Pain threshold after 180 min. (rats; 100 mg/kg per os, normal paw): 62.8 mm Hg | Pain threshold after 240 min. (rats; 100 mg/kg per os, normal paw): 64.0 mm Hg | Pain threshold, before medication (rats; 100 mg/kg per os, normal paw): 66.9 mm Hg
